According to PubChem BioAssay AID330 (DTP/NCI, 2004):
“And” between values parts separate entries of the source, which are not always exact repeats. Equal values may be shown once. Toxic doses and inconclusive results are not listed. The calls were made as follows: active = survival T/C of 150% or more; inactive = T/C below 125% in these data.

Test system: P388 leukemia ip, CD2F1 mice, survival T/C
Test: NCI In Vivo Anticancer Drug Screen. Data for tumor model P388 Leukemia (intraperitoneal) in CD2F1 (CDF1) mice
Details: endpoint: median survival time, higher = longer survival
Outline: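 Mice carrying the transplanted tumor received test compound or vehicle. Survival was recorded in each group, and the value is the treated-group measurement divided by that of the vehicle-treated control group.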

[1] = dose: 100.0 mg/kg/injection, schedule: Q01DX009 (ip), vehicle: saline with Tween-80
[2] = dose: 200.0 mg/kg/injection, schedule: Q01DX009 (ip), vehicle: saline with Tween-80
[3] = dose: 400.0 mg/kg/injection, schedule: Q01DX009 (ip), vehicle: saline with Tween-80
[4] = dose: 12.5 mg/kg/injection, schedule: Q01DX009 (ip), vehicle: saline with Tween-80
[5] = dose: 25.0 mg/kg/injection, schedule: Q01DX009 (ip), vehicle: saline with Tween-80
[6] = dose: 50.0 mg/kg/injection, schedule: Q01DX009 (ip), vehicle: saline with Tween-80
[7] = dose: 50.0 mg/kg/injection, schedule: Q01DX005 (ip), vehicle: saline with Tween-80
[8] = dose: 100.0 mg/kg/injection, schedule: Q01DX005 (ip), vehicle: saline with Tween-80
[9] = dose: 200.0 mg/kg/injection, schedule: Q01DX005 (ip), vehicle: saline with Tween-80
[10] = dose: 100.0 mg/kg/injection, schedule: Q04DX003 (ip), vehicle: Klucel (hydroxypropylcellulose) (HPC)
[11] = dose: 200.0 mg/kg/injection, schedule: Q04DX003 (ip), vehicle: Klucel (hydroxypropylcellulose) (HPC)
[12] = dose: 400.0 mg/kg/injection, schedule: Q04DX003 (ip), vehicle: Klucel (hydroxypropylcellulose) (HPC)
[13] = dose: 12.5 mg/kg/injection, schedule: Q01DX009 (ip), vehicle: distilled water + Tween-80
[14] = dose: 25.0 mg/kg/injection, schedule: Q01DX009 (ip), vehicle: distilled water + Tween-80
[15] = dose: 50.0 mg/kg/injection, schedule: Q01DX009 (ip), vehicle: distilled water + Tween-80
[16] = dose: 100.0 mg/kg/injection, schedule: Q01DX009 (ip), vehicle: distilled water + Tween-80
[17] = dose: 200.0 mg/kg/injection, schedule: Q01DX009 (ip), vehicle: distilled water + Tween-80

Measured: T/C

NC(=O)Nc1ccccc1O
inactive: [1] 98 % of control | [2] 117 % of control | [3] 107 % of control

CCN1c2ccccc2CC(CCN(C)Cc2ccccc2)(C(N)=O)c2ccccc21 (centres undefined)
inactive: [4] 92 % of control | [5] 99 % of control | [6] 100 % of control

CCCCOc1cccc2c(NCCCCNCCCNc3c4ccccc4nc4c(OCCCC)cccc34)c3ccccc3nc12
inactive: dose: 0.63 mg/kg/injection, schedule: Q01DX009 (ip), vehicle: other 105 % of control | dose: 1.25 mg/kg/injection, schedule: Q01DX009 (ip), vehicle: other 120 % of control | dose: 2.5 mg/kg/injection, schedule: Q01DX009 (ip), vehicle: other 111 % of control | dose: 5.0 mg/kg/injection, schedule: Q01DX009 (ip), vehicle: other 121 % of control

COc1cc(C)c(O)c(C/C=C(\C)CC(=O)[C@H]2[C@]3(C)CCC[C@]3(C)[C@@]23C[C@H](O)C(C)(C)O3)c1
inactive: dose: 8.75 mg/kg/injection, schedule: Q01DX005 (ip), vehicle: saline with Tween-80 95 % of control | dose: 17.5 mg/kg/injection, schedule: Q01DX005 (ip), vehicle: saline with Tween-80 92 % of control | dose: 35.0 mg/kg/injection, schedule: Q01DX005 (ip), vehicle: saline with Tween-80 96 % of control

COc1ccc(C2Oc3cc(O)c4c(=O)c5c(OC)cccc5oc4c3OC2CO)cc1O (centres undefined)
inactive: dose: 6.25 mg/kg/injection, schedule: Q01DX009 (ip), vehicle: saline + alcohol 111 % of control | dose: 12.5 mg/kg/injection, schedule: Q01DX009 (ip), vehicle: saline + alcohol 100 % of control | dose: 25.0 mg/kg/injection, schedule: Q01DX009 (ip), vehicle: saline + alcohol 100 % of control

CCCCCCCCCCCCCCCc1c(NC(C)(CC(C)(C)O)[P+](=O)O)c(=O)n(C)n1C (centres undefined)
inactive: dose: 50.0 mg/kg/injection, schedule: Q01DX009 (ip), vehicle: saline 96 % of control | dose: 100.0 mg/kg/injection, schedule: Q01DX009 (ip), vehicle: saline 88 % of control

CN=C(C#N)c1ccccc1
inactive: [7] 100 % of control | [8] 98 % of control | [9] 99 % of control

CC[C@]1(O)CC(OC2CC(N(C)C)C(O)C(C)O2)c2c(cc3c(c2O)C(=O)c2c(O)cccc2C3=O)[C@@H]1C(=O)OC (some centres undefined)
inactive: dose: 50.0 mg/kg/injection, schedule: Q01DX005 (ip), vehicle: Klucel (hydroxypropylcellulose) (HPC) 95 % of control | dose: 100.0 mg/kg/injection, schedule: Q01DX005 (ip), vehicle: Klucel (hydroxypropylcellulose) (HPC) 96 % of control | dose: 200.0 mg/kg/injection, schedule: Q01DX005 (ip), vehicle: Klucel (hydroxypropylcellulose) (HPC) 97 % of control

CCOC(=O)/C=C(\C)NC1CC(=O)NC1=O (centres undefined)
inactive: dose: 50.0 mg/kg/injection, schedule: Q01DX009 (ip), vehicle: distilled water + alcohol 104 % of control | dose: 100.0 mg/kg/injection, schedule: Q01DX009 (ip), vehicle: distilled water + alcohol 108 % of control

CC1C(=O)OC2C1CCC1(C)CCC(=O)C(C)C21 (centres undefined)
inactive: dose: 100.0 mg/kg/injection, schedule: Q04DX002 (ip), vehicle: saline with Tween-80 101 % of control

Cc1cc2ccccc2c[n+]1CCCCCCCCI
inactive: dose: 6.25 mg/kg/injection, schedule: Q01DX005 (ip), vehicle: saline with Tween-80 110 % of control | dose: 12.5 mg/kg/injection, schedule: Q01DX005 (ip), vehicle: saline with Tween-80 115 % of control | dose: 25.0 mg/kg/injection, schedule: Q01DX005 (ip), vehicle: saline with Tween-80 110 % of control | [7] 108 % of control

O=C(O)CCN1c2ccccc2Sc2ccccc21
inactive: dose: 50.0 mg/kg/injection, schedule: Q01DX009 (ip), vehicle: Klucel (hydroxypropylcellulose) (HPC) 89 % of control | dose: 100.0 mg/kg/injection, schedule: Q01DX009 (ip), vehicle: Klucel (hydroxypropylcellulose) (HPC) 100 % of control | dose: 200.0 mg/kg/injection, schedule: Q01DX009 (ip), vehicle: Klucel (hydroxypropylcellulose) (HPC) 99 % of control | dose: 400.0 mg/kg/injection, schedule: Q01DX009 (ip), vehicle: Klucel (hydroxypropylcellulose) (HPC) 101 % of control

C/C(CCCC(C)(C)C(=O)O)=N/Nc1ccc([N+](=O)[O-])cc1[N+](=O)[O-]
inactive: [4] 104 % of control | [5] 100 % of control | [6] 92 % of control and 95 % of control

O=C(Nc1ccc(N=C=S)cc1Cl)c1ccc2ccccc2c1O
inactive: [10] 101 % of control and 105 % of control | [11] 100 % of control and 106 % of control | [12] 110 % of control and 123 % of control

COc1cc2ccnc(/C=N\O)c2cc1OC
inactive: [13] 102 % of control | [14] 116 % of control | [15] 109 % of control | [16] 102 % of control | [17] 91 % of control | dose: 400.0 mg/kg/injection, schedule: Q01DX009 (ip), vehicle: distilled water + Tween-80 93 % of control

NC(=O)C(C(N)=O)=C1C(=O)c2ccccc2C1=O
inactive: dose: 60.0 mg/kg/injection, schedule: Q01DX005 (ip), vehicle: Klucel (hydroxypropylcellulose) (HPC) 95 % of control | dose: 120.0 mg/kg/injection, schedule: Q01DX005 (ip), vehicle: Klucel (hydroxypropylcellulose) (HPC) 100 % of control | dose: 240.0 mg/kg/injection, schedule: Q01DX005 (ip), vehicle: Klucel (hydroxypropylcellulose) (HPC) 99 % of control

C[N+](C)=C1C=CC(=C2C=CSC=C2)C=C1
inactive: dose: 12.5 mg/kg/injection, schedule: Q01DX009 (ip), vehicle: saline 108 % of control and 112 % of control

COc1cc(NC(C)CCCN)c2ncc(Br)cc2c1 (centres undefined)
inactive: dose: 6.25 mg/kg/injection, schedule: Q01DX005 (ip), vehicle: saline 95 % of control | dose: 12.5 mg/kg/injection, schedule: Q01DX005 (ip), vehicle: saline 91 % of control

COC1=CC2CC(C#N)C2(OC)C=C1 (centres undefined)
inactive: dose: 60.0 mg/kg/injection, schedule: Q01DX005 (ip), vehicle: saline with Tween-80 97 % of control | dose: 120.0 mg/kg/injection, schedule: Q01DX005 (ip), vehicle: saline with Tween-80 99 % of control | dose: 240.0 mg/kg/injection, schedule: Q01DX005 (ip), vehicle: saline with Tween-80 98 % of control

Cc1cc(O)c(NCCCN(C)C)c2c(=O)c3ccccc3sc12
inactive: [5] 97 % of control | [6] 93 % of control | [1] 110 % of control

C=C1C(O)CC2C(O)C3(C)CCC(C)(C)C3C12O (centres undefined)
inactive: dose: 18.75 mg/kg/injection, schedule: Q01DX009 (ip), vehicle: other 106 % of control | dose: 37.5 mg/kg/injection, schedule: Q01DX009 (ip), vehicle: other 98 % of control | dose: 75.0 mg/kg/injection, schedule: Q01DX009 (ip), vehicle: other 100 % of control | dose: 150.0 mg/kg/injection, schedule: Q01DX009 (ip), vehicle: other 93 % of control

CCCCC(NC(C)=O)C(=O)O (centres undefined)
inactive: [6] 99 % of control and 95 % of control | [1] 98 % of control | [2] 100 % of control and 96 % of control | [3] 100 % of control

CN1CCN(CCCN2c3ccccc3Sc3cc(N4c5ccccc5Sc5ccc(C(F)(F)F)cc54)c(C(F)(F)F)cc32)CC1
inactive: [10] 95 % of control | [11] 95 % of control | [12] 107 % of control

CC(=O)c1ccc(O)c(CN(CCC#N)CCC#N)c1O
inactive: [6] 96 % of control | [1] 89 % of control | [2] 90 % of control

C#CC(C)(C)Nc1c2ccccc2nc2ccccc12
inactive: [7] 96 % of control | [8] 103 % of control | [9] 102 % of control

CCCNC12CN3CN(CN(C3)C1)C2
inactive: dose: 100.0 mg/kg/injection, schedule: Q04DX003 (ip), vehicle: saline 99 % of control | dose: 200.0 mg/kg/injection, schedule: Q04DX003 (ip), vehicle: saline 100 % of control | dose: 400.0 mg/kg/injection, schedule: Q04DX003 (ip), vehicle: saline 95 % of control

O=C(CCl)Nc1nncs1
inactive: [13] 100 % of control | [14] 104 % of control | [15] 106 % of control | [16] 104 % of control | [17] 100 % of control
